Assay results: publication PMC3288053 (PLoS ONE, 2012)

Legend:
[1] = molecular target: T1, PPARγ-LBD (Homo sapiens, UniProt P37231); test: SPR (Biacore) binding assay; conditions: 1:1 Langmuir fitting
T1 construct: pET15b-PPARγ-LBD202–477; His-tag (N); made in house; host or cells: E. coli BL21 (DE3)
Procedure: Binding affinities of Rut towards proteins are analyzed using SPR technology based Biacore 3000 instrument (GE Healthcare). In the assay, proteins are immobilized to CM5 chips using a standard amine-coupling procedure (Biacore manual). The proteins to be covalently bound to the chips are diluted in 10 mM sodium acetate buffer (pH4.5) to a final concentration of 0.10 mg/ml. Before experiments, baseline is equilibrated with a continuous flow of running buffer (10 mM HEPES, 150 mM NaCl, 3 mM EDTA, and 0.005% (v/v) surfactant P20, pH7.4) for 2 hours. Subsequently, Rut with a gradient of concentrations is injected to the channels at a flow rate of 20 µL/min for 60 seconds, followed by disassociation for 120 seconds. The 1∶1 Langmuir binding fitting model in BIAevaluation software version 3.1 (Biacore) is used to determine the equilibrium dissociation constants (K Ds) of compounds. […] Different concentrations of PPARγ-LBD or RXRα-LBD are injected to the channel at a flow rate of 20 µL/min for 60 s, followed by disassociation for 120 s.

[2] = system: IR (Tyr1146), AKT (Ser473) in 3T3-L1 adipocytes; test: Western blot of IR and AKT phosphorylation; format: cell-based; conditions: insulin 17 nM, 5 minutes
Procedure: (§1) Insulin sensitizing effects of Rut are investigated in CHO-K1 and 3T3-L1 adipocytes. After incubation with compounds in serum-free medium for indicated time, cells are stimulated with insulin (170 nM for CHO-K1 cells and 17 nM for 3T3-L1 adipocytes) for 5 min, and the stimulation is stopped by ice-cold PBS. The effect of Rut on insulin signaling is also investigated in CHO-K1 cells. In the assay, cells are stimulated with Rut (20 µM, 8 h) or insulin (170 nM, 5 min), and then lysed on ice. GLUT4 protein level is studied in the differentiated 3T3-L1 adipocytes (the 10th day after MDI stimulation). After incubation of compounds for 48 h, cells are lysed on ice. The proteins are resolved by SDS-polyacrylamide gel electrophoresis and electro-transferred to polyvinylidene difluoride membranes. The membrane is blocked by 5% skimmed milk and incubated with antibodies. Proteins are visualized by the ECL detecting system.

[3] = system: IR (Tyr1146), AKT (Ser473) in CHO-K1 cells; test: Western blot of IR and AKT phosphorylation; format: cell-based; conditions: insulin 170 nM, 5 minutes, different doses of Rut
Procedure: as §1

[4] = molecular target: T2, PTP1B (D48A) (Homo sapiens, UniProt P18031, D48A); test: PTP enzyme inhibition assay, D48A mutant; format: biochemical
T2 construct: pGEX4T-1-PTP1B1–321; GST (N); made in house; host or cells: E. coli (BL21 (DE3) stated for the wild-type plasmid)
Procedure: The plasmid pGEX4T1-PTP1B (D48A) is generated by site-directed mutagenesis with pGEX4T1-PTP1B (WT) as template. The primer pairs are sense: 5′-[…]-3′ and antisense: 5′-[…]-3′.
The enzymatic activities of the recombinant PTPs are measured at 25°C using pNPP as substrate. The initial velocities of enzymatic reactions are determined by continuously measuring the absorbance at 405 nm every 15 s using a microplate spectrophotometer (Bio-Rad). […] To determine the inhibition type, each concentration of Rut (0, 50 and 75 µM) is incubated with PTP1B (0.3 µM) in reaction buffer (50 mM HEPES, pH7.0, 1 mM EDTA, and 100 mM NaCl) for 10 min and the reactions are initiated by different concentrations of pNPP (0.5–10 mM). The inhibition type is determined using double-reciprocal plots. In determination of the selectivity of Rut against PTPs, the result is referred as no inhibition when 100 µM Rut inhibits no enzyme activity. The same reaction systems are designed for all PTPs including PTP1B.

[5] = system: GLUT4 promoter; test: GLUT4 promoter luciferase assay with rxrα or pparγ siRNA; format: cell-based; conditions: Rut 20 µM
Procedure: HEK293 cells are transfected with luciferase reporter plus Renilla luciferase vector and other plasmids if needed for 5 hours, and cells are then incubated with indicated concentrations of compounds for another 24 h. Finally cells are lysed and luciferase activities are measured using Dual Luciferase Assay System kit. The results are presented as the fold activation relative to untreated cells after normalization with Renilla luciferase values. Each experiment is repeated at least twice, with each sample analyzed in triplicates.

[6] = system: GLUT4 promoter; test: GLUT4 promoter-luciferase reporter assay in 3T3-L1 adipocytes; format: cell-based; conditions: pre-treated 24 hours
Procedure: (a) Chemical structure of (+)-Rutamarin. […] Green fluorescence represents the total GLUT4, and red fluorescence depicts the translocated GLUT4 to cell membrane. (d) Insulin (170 nM)-induced GLUT4 translocation of CHO-K1/GLUT4 cells treated with compound-2 (C2, 10 µM), pervanadate (Pervan, 100 µM) and Rut (5, 10, 20 µM) for 5 minutes. (e) Immunofluorescence with antibody against GLUT4 (green), DAPI (blue) in 3T3-L1 adipocytes. GLUT4 translocation is detected either in the insulin (17 nM) stimulated 3T3-L1 adipocytes for 5 minutes, or pre-treated with Rut (20 µM) for 8 hours and then stimulated with insulin (17 nM) for 5 minutes. (f) Rut potently stimulates GLUT4 promoter activity in 3T3-L1 adipocytes (20 µM, Rut was pre-treated in the cells for 24 hours. Reporter gene is GLUT4 promoter-luciferase plasmid together with Renilla luciferase expression vector as a control). (g) H^3-glucose uptake assay in fully differentiated 3T3-L1 adipocytes treated with C2 (10 µM) and different doses of Rut (5–25 µM). Treatment of Rut for 30 minutes improves the insulin (17 nM)-stimulated glucose uptake. (h) GLUT4 expression is determined by western blotting with an antibody against GLUT4 in 3T3-L1 adipocytes treated with Rut (20 µM) for 48 hours. Data are presented as means ± s.e.m (*P<0.05, **P<0.01) from three independent experiments.

T1 sequence (P37231 230-505): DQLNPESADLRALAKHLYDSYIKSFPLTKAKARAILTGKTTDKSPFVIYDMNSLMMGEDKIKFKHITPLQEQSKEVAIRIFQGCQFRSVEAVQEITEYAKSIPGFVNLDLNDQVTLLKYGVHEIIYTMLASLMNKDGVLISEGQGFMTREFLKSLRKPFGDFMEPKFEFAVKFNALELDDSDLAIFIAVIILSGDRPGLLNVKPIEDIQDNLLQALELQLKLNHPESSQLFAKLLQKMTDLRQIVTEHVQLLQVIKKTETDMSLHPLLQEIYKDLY
T2 sequence (P18031 1-321 D48A): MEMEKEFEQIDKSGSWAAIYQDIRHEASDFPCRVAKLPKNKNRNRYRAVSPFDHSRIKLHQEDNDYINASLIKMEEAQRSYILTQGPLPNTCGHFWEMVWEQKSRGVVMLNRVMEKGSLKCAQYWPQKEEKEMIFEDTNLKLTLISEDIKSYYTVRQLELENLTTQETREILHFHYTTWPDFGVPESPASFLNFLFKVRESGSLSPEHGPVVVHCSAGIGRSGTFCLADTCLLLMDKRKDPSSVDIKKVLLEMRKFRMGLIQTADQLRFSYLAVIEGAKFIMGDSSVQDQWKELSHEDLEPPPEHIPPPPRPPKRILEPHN

## C=CC(C)(C)c1cc2cc3c(cc2oc1=O)O[C@H](C(C)(C)OC(C)=O)C3 [(+)-Rutamarin]
[1]
  equilibrium dissociation constant KD / binding to PPARγ-LBD: no binding
[2]
  insulin-stimulated phosphorylation levels of IR and AKT: largely increased
[3]
  insulin-induced phosphorylation of IR and AKT: enhances
[4]
  IC50: 14.8 µM
[5]; Fig. 6b, pSuperbasic control vector
  Relative glut4-pro activity: 1.31 X
[5]; Fig. 6b, pSuperbasic-RXRα (rxrα siRNA)
  Relative glut4-pro activity: 0.98 X
[5]; Fig. 6c, pSuperbasic control vector
  Relative glut4-pro activity: 1.55 X
[5]; Fig. 6c, pSuperbasic-PPARγ (pparγ siRNA)
  Relative glut4-pro activity: 1.39 X
[6]
  GLUT4 promoter activity: dose-dependently induce
